This note sets out measurements from US20130210846A1, “USE OF NOVEL PAN-CDK INHIBITORS FOR TREATING TUMORS” (BAYER INTELLECTUAL PROPERTY GMBH, priority 2010, published 2013).

SMILES strings stand for the structures.

For one test, the system named is HeLa-MaTu-ADR. Description: Proliferation assay HeLa-MaTu-ADR. The format is cell-based, human. As to conditions: cervix carcinoma, 4 days, crystal violet. The method, then: (§1) Cultivated human tumor cells (originally obtained from ATCC, HeLa-MaTu and HeLa-MaTu-ADR, originally obtained from Epo GmbH, Berlin, Germany) were plated at a density of 1000 to 5000 cells/measuring point, depending on the growth rate of the cell line, in a 96-well multititer plate in 200 μl of growth medium (DMEM/HAMS F12, 2 mM L-glutamine, 10% fetal calf serum). After 24 hours the cells of one plate (zero-point plate) were stained with crystal violet (see below), whereas the medium of the other plates was replaced with fresh culture medium (200 μl), to which the test substances had been added at various concentrations (0 μM, and in the range 0.01-30 μM; the final concentration of the solvent dimethyl sulfoxide was 0.5%). The cells were incubated for 4 days in the presence of the test substances. Cellular proliferation was determined by staining the cells with crystal violet: the cells were fixed by adding 20 μl/measuring point of an 11% glutaraldehyde solution for 15 min at room temperature. After washing the fixed cells with water three times, the plates were dried at room temperature. The cells were stained by adding 100 μl/measuring point of a 0.1% crystal violet solution (pH adjusted to pH3 by adding acetic acid). After washing the stained cells with water three times, the plates were dried at room temperature. The dye was dissolved by adding 100 μl/measuring point of a 10% acetic acid solution. The extinction was determined photometrically at a wavelength of 595 nm. The percentage change in cell growth was calculated by standardization of the measured values to the extinction values of the zero-point plate (=0%) and the extinction of the untreated (0 μM) cells (=100%). The measured data were standardized to 0% inhibition (cell proliferation without inhibitor) and 100% inhibition (zero-point plate). The IC50 values were determined by means of a 4-parameter fit using the company's own software.
(§2) The substances were examined in the following cell lines which, in an exemplary manner, represent the stated indications: […]

The next test concerns MCF7. Description: Proliferation assay MCF7. The format is cell-based, human. As to conditions: MCF7, estrogen receptor-positive mamma carcinoma; 4 days, crystal violet. As to the method:
as §1, §2

The next test concerns DU145. Description: Proliferation assay DU145. The test is classed as cell-based, human. As to conditions: DU145, prostate carcinoma; 4 days, crystal violet. As to the method:
as §1, §2

The target in a further test is T1, CDK2/CycE (Homo sapiens, UniProt P24941).
T1 construct: purchased ProQinase GmbH, Freiburg, Germany; host or cells: baculovirus-infected insect cells (Sf9)
Description: CDK2/CycE kinase assay (Assay 2). The format is biochemical. As to conditions: 0.5 μM ATP, histon IIIS, 10 min 22° C.; read-out: CDK2/CycE (Assay 2) Concentration for half-maximal inhibition of the enzyme activity, IC50. As to the method:
Recombinant CDK2 and CycE-GST fusion proteins, purified from baculovirus-infected insect cells (Sf9), were purchased from ProQinase GmbH, Freiburg, Germany. Histon HIS, used as kinase substrate, was purchased from Sigma.
The reaction was stopped by adding EDTA solution (250 mM, pH 8.0, 15 μl/measuring point).
From each reaction mixture, 15 μl was applied to P30 filter strips (from Wallac), and unincorporated ^33P-ATP was removed by washing the filter strips three times, for 10 min each time, in 0.5% phosphoric acid. After drying the filter strips for 1 hour at 70° C., the filter strips were covered with scintillator strips (MeltiLex™ A, from Wallac) and stoved for 1 hour at 90° C. The amount of incorporated ^33P (substrate phosphorylation) was determined by scintillation measurement in a gamma-radiation measuring instrument (Wallac). […] The IC50 values were determined by means of a 4-parameter fit using the company's own software.

The test system of the next test is Caco-2. Description: Proliferation assay Caco-2. The format is cell-based, human. Conditions: Caco-2, colon/rectum carcinoma; 4 days, crystal violet. The method, then:
as §1, §2

Test [1] addresses T2, VEGF receptor tyrosine kinase-2 (VEGF-R2) (Homo sapiens, UniProt P35968).
T2 construct: GST; made in house; host or cells: baculovirus-infected insect cells (Sf9)
Description: VEGF receptor-2 kinase assay (Assay 3). The format is biochemical. As to conditions: 8 μM ATP, poly-(Glu4Tyr), 10 min 22° C.; read-out: VEGF-R2 (Assay 3) Concentration for half-maximal inhibition of the enzyme activity, IC50. As to the method:
Recombinant VEGF receptor tyrosine kinase-2 was purified as GST fusion protein from baculovirus-infected insect cells (Sf9). Poly-(Glu4Tyr), used as kinase substrate, was purchased from Sigma.
VEGF receptor tyrosine kinase (90 ng/measuring point) was incubated for 10 min at 22° C. in the presence of various concentrations of test substances (0 μM, and within the range 0.001-30 μM) in 30 μl assay buffer [40 mM Tris/HCl pH5.5, 10 mM MgCl2, 1 mM MnCl2, 3 μM Na ortho-vanadate, 1.0 mM dithiothreitol, 8 μM adenosine triphosphate (ATP), 0.96 μg/measuring point poly-(Glu4Tyr), 0.2 μCi/measuring point ^33P-gamma ATP, 1.4% dimethyl sulfoxide]. The reaction was stopped by adding EDTA solution (250 mM, pH 8.0, 15 μl/measuring point).
(§3) From each reaction mixture, 15 μl was applied to P30 filter strips (from Wallac), and unincorporated ^33P-ATP was removed by washing the filter strips three times, for 10 min each time, in 0.5% phosphoric acid. After drying the filter strips for 1 hour at 70° C., the filter strips were covered with scintillator strips (MeltiLex™ A, from Wallac) and stoved for 1 hour at 90° C. The amount of incorporated ^33P (substrate phosphorylation) was determined by scintillation measurement in a gamma-radiation measuring instrument (Wallac). The measured data were standardized to 0% inhibition (enzyme reaction without inhibitor) and 100% inhibition (all assay components except enzyme). The IC50 values were determined by means of a 4-parameter fit using the company's own software.

A further test deals with NCI-H460. Description: Proliferation assay NCI-H460. As to conditions: NCI-H460, non-small-cell bronchial carcinoma; 4 days, crystal violet. The test is classed as cell-based, human. The method, then:
as §1, §2

The next test deals with T3, CDK1/CycB (Homo sapiens, UniProt P06493).
T3 construct: purchased ProQinase GmbH, Freiburg, Germany; host or cells: baculovirus-infected insect cells (Sf9)
T3 sequence (P06493 whole entry): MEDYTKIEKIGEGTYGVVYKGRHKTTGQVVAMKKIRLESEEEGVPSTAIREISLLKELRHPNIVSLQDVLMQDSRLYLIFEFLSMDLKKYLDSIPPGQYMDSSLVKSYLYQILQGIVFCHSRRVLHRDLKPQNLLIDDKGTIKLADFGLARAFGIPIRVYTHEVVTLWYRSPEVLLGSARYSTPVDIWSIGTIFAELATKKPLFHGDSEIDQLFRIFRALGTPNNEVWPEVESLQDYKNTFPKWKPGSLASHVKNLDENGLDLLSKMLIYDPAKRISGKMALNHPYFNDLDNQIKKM
T3 sequence (P14635 whole entry partner): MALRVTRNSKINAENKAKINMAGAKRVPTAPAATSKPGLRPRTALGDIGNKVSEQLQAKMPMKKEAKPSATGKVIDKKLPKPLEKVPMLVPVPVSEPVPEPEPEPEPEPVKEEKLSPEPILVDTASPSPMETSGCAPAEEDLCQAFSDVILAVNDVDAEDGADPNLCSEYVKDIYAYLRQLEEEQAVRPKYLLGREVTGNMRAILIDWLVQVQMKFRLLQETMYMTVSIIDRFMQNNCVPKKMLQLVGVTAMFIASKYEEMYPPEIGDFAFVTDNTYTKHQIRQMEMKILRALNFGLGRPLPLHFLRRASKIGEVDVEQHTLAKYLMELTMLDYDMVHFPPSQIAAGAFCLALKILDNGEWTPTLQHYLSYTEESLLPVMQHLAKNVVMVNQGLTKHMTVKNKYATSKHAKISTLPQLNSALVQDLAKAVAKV
Description: CDK1/CycB kinase assay (Assay 1). The format is biochemical. As to conditions: 0.5 μM ATP, histon IIIS, 10 min 22° C.; read-out: CDK1/CycB (Assay 1) Concentration for half-maximal inhibition of the enzyme activity, IC50. The method, then: Recombinant CDK1 and CycB-GST fusion proteins, purified from baculovirus-infected insect cells (Sf9), were purchased from ProQinase GmbH, Freiburg, Germany. The histon HIS used as kinase substrate is commercially available from Sigma.
CDK1/CycB (200 ng/measuring point) was incubated for 10 min at 22° C. in the presence of various concentrations of test substances (0 μM, and within the range 0.01-100 μM) in assay buffer [50 mM Tris/HCl pH8.0, 10 mM MgCl2, 0.1 mM Na ortho-vanadate, 1.0 mM dithiothreitol, 0.5 μM adenosine triphosphate (ATP), 10 μg/measuring point histon IIIS, 0.2 μCi/measuring point ^33P-gamma ATP, 0.05% NP40, 1.25% dimethyl sulfoxide]. The reaction was stopped by adding EDTA solution (250 mM, pH 8.0, 15 μl/measuring point).
as §3, with “μl were” for “μl was”

Another test concerns HeLa-MaTu. Description: Proliferation assay HeLa-MaTu. The test is classed as cell-based, human. Conditions: cervix carcinoma, 4 days, crystal violet. As to the method:
as §1, §2

T2 sequence (P35968 20-1356, species assumed): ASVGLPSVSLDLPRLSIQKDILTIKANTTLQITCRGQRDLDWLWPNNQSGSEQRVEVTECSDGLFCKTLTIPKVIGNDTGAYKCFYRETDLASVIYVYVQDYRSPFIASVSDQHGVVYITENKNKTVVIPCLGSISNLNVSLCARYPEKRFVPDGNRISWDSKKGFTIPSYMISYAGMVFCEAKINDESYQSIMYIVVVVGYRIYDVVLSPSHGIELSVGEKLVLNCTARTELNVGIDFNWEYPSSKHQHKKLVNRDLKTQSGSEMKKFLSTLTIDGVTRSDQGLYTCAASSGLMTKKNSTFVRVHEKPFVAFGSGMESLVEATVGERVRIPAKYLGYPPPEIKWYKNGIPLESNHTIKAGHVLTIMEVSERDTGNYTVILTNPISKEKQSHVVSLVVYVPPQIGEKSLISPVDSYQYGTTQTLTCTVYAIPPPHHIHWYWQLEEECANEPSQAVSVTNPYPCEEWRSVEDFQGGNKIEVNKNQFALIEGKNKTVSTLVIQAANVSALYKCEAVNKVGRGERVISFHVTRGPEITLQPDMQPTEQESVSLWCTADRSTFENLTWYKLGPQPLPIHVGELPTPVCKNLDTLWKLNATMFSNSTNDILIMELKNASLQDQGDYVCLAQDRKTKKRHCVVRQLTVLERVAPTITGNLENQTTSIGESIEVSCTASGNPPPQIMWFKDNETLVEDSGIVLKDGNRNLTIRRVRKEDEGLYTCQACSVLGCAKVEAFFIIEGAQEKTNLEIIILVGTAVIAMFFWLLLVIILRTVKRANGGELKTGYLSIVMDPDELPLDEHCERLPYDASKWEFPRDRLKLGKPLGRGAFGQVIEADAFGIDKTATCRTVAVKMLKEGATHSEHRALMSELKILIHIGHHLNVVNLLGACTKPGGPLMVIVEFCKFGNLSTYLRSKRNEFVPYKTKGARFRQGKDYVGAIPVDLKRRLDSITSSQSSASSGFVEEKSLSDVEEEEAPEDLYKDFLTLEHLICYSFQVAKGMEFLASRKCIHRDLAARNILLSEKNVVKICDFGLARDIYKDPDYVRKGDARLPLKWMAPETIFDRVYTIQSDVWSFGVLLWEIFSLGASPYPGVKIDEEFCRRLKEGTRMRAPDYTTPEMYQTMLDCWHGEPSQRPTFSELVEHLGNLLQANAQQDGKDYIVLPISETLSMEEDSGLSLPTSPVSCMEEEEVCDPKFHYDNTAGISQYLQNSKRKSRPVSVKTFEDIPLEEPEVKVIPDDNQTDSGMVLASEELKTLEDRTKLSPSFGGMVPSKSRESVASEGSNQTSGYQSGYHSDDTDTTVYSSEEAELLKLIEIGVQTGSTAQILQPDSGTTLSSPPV

For the molecule `CCS(=N)(=O)c1ccc(Nc2ncc(C(F)(F)F)c(N[C@H](C)[C@@H](C)O)n2)cc1` (mixture of isomers) [Example 6-SI-1, (RS)—S-Ethyl-S-(4-{[4-{[(1R,2R)-2-hydroxy-1-methylpropyl]amino}-5-(trifluoromethyl)-pyrimidin-2-yl]amino}phenyl)sulfoximide], the IC50 in the test on HeLa-MaTu-ADR was found to be 35 nM; with MCF7, 59 nM; in the test with DU145, 100 nM; on CDK2/CycE, 5 nM; in the test on Caco-2 it was 120 nM; in test [1], 73 nM. The IC50 in the test with NCI-H460 is 50 nM; on CDK1/CycB, 10 nM.

With `C[C@@H](O)[C@@H](C)Oc1nc(Nc2ccc(S(C)(=N)=O)cc2)ncc1C(F)(F)F` (mixture of isomers) [Example 2-SI-1, (RS)—S-(4-{[4-{[(1R,2R)-2-Hydroxy-1-methylpropyl]oxy}-5-(trifluoromethyl)pyrimidin-2-yl]-amino}phenyl)-S-methylsulfoximide], the IC50 in the test with HeLa-MaTu-ADR came to 32 nM; in the test on MCF7, 39 nM; in the test on DU145 it was 28 nM; in the test with Caco-2, 80 nM; with NCI-H460 it was 68 nM.

Regarding `CCS(=N)(=O)c1ccc(Nc2ncc(C(F)(F)F)c(N[C@H](C)C(C)(C)O)n2)cc1` (mixture of isomers) [Example 7-SI-1, (RS)—S-Ethyl-S-(4-{[4-{[(R)-2-hydroxy-1,2-dimethylpropyl]amino}-5-(trifluoromethyl)pyrimidin-2-yl]amino}phenyl)sulfoximide], the IC50 is 112 nM in the test with HeLa-MaTu-ADR; 106 nM in the test with MCF7; 152 nM in the test on DU145; 196 nM with Caco-2; 119 nM in the test on NCI-H460; 27 nM in the test on HeLa-MaTu.

With `CCS(=N)(=O)c1ccc(Nc2ncc(C(F)(F)F)c(N[C@H](C)C(C)(C)O)n2)cc1` (mixture of isomers) [Example 7-SI-2, (RS)—S-Ethyl-S-(4-{[4-{[(R)-2-hydroxy-1,2-dimethylpropyl]amino}-5-(trifluoromethyl)pyrimidin-2-yl]amino}phenyl)sulfoximide], the IC50 in the test with HeLa-MaTu-ADR came to 36 nM; with MCF7, 39 nM; in the test with DU145 it was 42 nM; with Caco-2, 67 nM; in the test on NCI-H460, 51 nM; with HeLa-MaTu it was 10 nM.

On to `C[C@@H](O)[C@@H](C)Nc1nc(Nc2ccc(S(C)(=N)=O)cc2)ncc1C(F)(F)F` (mixture of isomers) [Example 8-SI-1, (RS)—S-(4-{[4-{[(1R,2R)-2-Hydroxy-1-methylpropyl]amino}-5-(trifluoromethyl)pyrimidin-2-yl]-amino}phenyl)-S-methylsulfoximide], for which the IC50 with DU145 is 64 nM.

Regarding `C[C@@H](O)[C@@H](C)Nc1nc(Nc2ccc(S(C)(=N)=O)cc2)ncc1C(F)(F)F` (mixture of isomers) [Example 8-SI-2, (RS)—S-(4-{[4-{[(1R,2R)-2-Hydroxy-1-methylpropyl]amino}-5-(trifluoromethyl)pyrimidin-2-yl]-amino}phenyl)-S-methylsulfoximide], the IC50 came to 24 nM with HeLa-MaTu-ADR; 23 nM in the test with MCF7; 30 nM with DU145; 41 nM in the test with Caco-2; 28 nM with NCI-H460; 10 nM with HeLa-MaTu.

In the case of `C[C@@H](Nc1nc(Nc2ccc(S(C)(=N)=O)cc2)ncc1C(F)(F)F)C(C)(C)O` (mixture of isomers) [Example 9-SI-1, (RS)—S-(4-{[4-{[(1R)-2-Hydroxy-1,2-dimethylpropyl]amino}-5-(trifluoromethyl)pyrimidin-2-yl]amino}phenyl)-S-methylsulfoximide], the IC50 was found to be 19 nM in the test with HeLa-MaTu-ADR; 89 nM in the test on MCF7; 34 nM in the test with DU145; 61 nM in the test on Caco-2; 34 nM in the test on NCI-H460.

For `C[C@@H](Nc1nc(Nc2ccc(S(C)(=N)=O)cc2)ncc1C(F)(F)F)C(C)(C)O` (mixture of isomers) [Example 9-SI-2, (RS)—S-(4-{[4-{[(1R)-2-Hydroxy-1,2-dimethylpropyl]amino}-5-(trifluoromethyl)pyrimidin-2-yl]amino}phenyl)-S-methylsulfoximide], the IC50 in the test with HeLa-MaTu-ADR amounted to 114 nM; in the test with MCF7 it was 271 nM; with DU145 it was 185 nM; with Caco-2, 200 nM; in the test with NCI-H460, 112 nM; in the test on HeLa-MaTu, 21 nM.

In the case of `CCS(=N)(=O)c1ccc(Nc2ncc(C(F)(F)F)c(N[C@H](C)C(C)(C)O)n2)cc1` (single isomer, unassigned) [Example 7-SI-1], the IC50 was 4 nM on CDK2/CycE, 143 nM in test [1] and 24 nM on CDK1/CycB.

Turning to `C[C@@H](Nc1nc(Nc2ccc(S(C)(=N)=O)cc2)ncc1C(F)(F)F)C(C)(C)O` (single isomer, unassigned) [Example 9-SI-2], the IC50 on CDK2/CycE was 3 nM; in [1] it was 154 nM; on CDK1/CycB, 17 nM.
